Data reported in patent US5843889A, “Glycopeptide antibiotic derivatives” (Eli Lilly and Company, priority 1997, dated 1998).
In brackets after ≈: the same amount, converted by molar mass.

What was measured:
Format in all cases: cell-based
Pedicoccus acidilacti = experiment: MIC, agar dilution on brain-heart infusion agar; conditions: Pedioccccus acidilacti (mean of 10)
[1] = tested on: Staphylococcus aureus SA1199; experiment: MIC, standard broth micro-dilution assay
Experimental: The MIC's were determined using a standard broth micro-dilution assay.

[2] = tested on: Entercoccus gallinarum 245; experiment: MIC, standard broth micro-dilution assay
Experimental: (§1) The formula I compounds have in vitro and in vivo activity against Gram-positive pathogenic bacteria. The MIC's were determined using a standard broth micro-dilution assay.

Entercoccus faecalis 276 = experiment: MIC, standard broth micro-dilution assay
Experimental: as §1

[3] = tested on: Entercoccus faecalis 2041; experiment: MIC, standard broth micro-dilution assay
Experimental: as §1

Compound | MIC (Pedicoccus acidilacti) [µg/mL] | MIC [1] [µg/mL] | MIC [2] [µg/mL] | MIC (Entercoccus faecalis 276) [µg/mL] | MIC [3] [µg/mL]
CNC(CC(C)C)C(=O)NC1C(=O)NC(CC(N)=O)C(=O)NC2C(=O)NC3C(=O)NC(C(=O)NC(C(=O)O)c4cc(O)cc(O)c4-c4cc3ccc4O)C(OC3CC(C)(N)C(O)C(C)O3)c3ccc(c(Cl)c3)Oc3cc2cc(c3OC2OC(CO)C(O)C(O)C2OC2CC(C)(NCc3cccc4c3OCO4)C(O)C(C)O2)Oc2ccc(cc2Cl)C1O (stereo not shown) [Compound 58, 2,3-methylenedioxybenzyl] | 55 (≈ 31.9 µM) | 1 (≈ 0.579 µM) | 0.5 (≈ 0.29 µM) | 0.5 (≈ 0.29 µM) | 0.5 (≈ 0.29 µM)
CNC(CC(C)C)C(=O)NC1C(=O)NC(CC(N)=O)C(=O)NC2C(=O)NC3C(=O)NC(C(=O)NC(C(=O)O)c4cc(O)cc(O)c4-c4cc3ccc4O)C(OC3CC(C)(N)C(O)C(C)O3)c3ccc(c(Cl)c3)Oc3cc2cc(c3OC2OC(CO)C(O)C(O)C2OC2CC(C)(NCc3ccc(Oc4ccc([N+](=O)[O-])cc4)cc3)C(O)C(C)O2)Oc2ccc(cc2Cl)C1O (stereo not shown) [Compound 57, 4-[4-nitrophenoxy]benzyl] | – | 1 (≈ 0.55 µM) | 2 (≈ 1.1 µM) | 0.5 (≈ 0.275 µM) | ≤ 0.06
CCOc1ccc2ccccc2c1CNC1(C)CC(OC2C(Oc3c4cc5cc3Oc3ccc(cc3Cl)C(OC3CC(C)(N)C(O)C(C)O3)C3NC(=O)C(NC(=O)C5NC(=O)C(CC(N)=O)NC(=O)C(NC(=O)C(CC(C)C)NC)C(O)c5ccc(c(Cl)c5)O4)c4ccc(O)c(c4)-c4c(O)cc(O)cc4C(C(=O)O)NC3=O)OC(CO)C(O)C2O)OC(C)C1O (stereo not shown) [Compound 60, 2-ethoxy-1-naphthylmethyl] | – | 0.5 (≈ 0.281 µM) | 16 (≈ 9.01 µM) | 0.5 (≈ 0.281 µM) | –
CNC(CC(C)C)C(=O)NC1C(=O)NC(CC(N)=O)C(=O)NC2C(=O)NC3C(=O)NC(C(=O)NC(C(=O)O)c4cc(O)cc(O)c4-c4cc3ccc4O)C(OC3CC(C)(N)C(O)C(C)O3)c3ccc(c(Cl)c3)Oc3cc2cc(c3OC2OC(CO)C(O)C(O)C2OC2CC(C)(NCc3ccc4c(c3)OCCO4)C(O)C(C)O2)Oc2ccc(cc2Cl)C1O (stereo not shown) [Compound 56] | – | 0.5 (≈ 0.287 µM) | 16 (≈ 9.19 µM) | 0.25 (≈ 0.144 µM) | 0.25 (≈ 0.144 µM)
CNC(CC(C)C)C(=O)NC1C(=O)NC(CC(N)=O)C(=O)NC2C(=O)NC3C(=O)NC(C(=O)NC(C(=O)O)c4cc(O)cc(O)c4-c4cc3ccc4O)C(OC3CC(C)(N)C(O)C(C)O3)c3ccc(c(Cl)c3)Oc3cc2cc(c3OC2OC(CO)C(O)C(O)C2OC2CC(C)(NCCc3ccccc3OCc3ccccc3)C(O)C(C)O2)Oc2ccc(cc2Cl)C1O (stereo not shown) [Compound 59, 2-benzyloxyphenethyl] | – | ≤ 0.06 | 1 (≈ 0.555 µM) | – | 0.5 (≈ 0.277 µM)
CN[C@H](CC(C)C)C(=O)N[C@H]1C(=O)N[C@@H](CC(N)=O)C(=O)N[C@H]2C(=O)N[C@H]3C(=O)N[C@H](C(=O)N[C@H](C(=O)O)c4cc(O)cc(O)c4-c4cc3ccc4O)[C@H](O[C@H]3C[C@](C)(N)[C@@H](O)[C@H](C)O3)c3ccc(c(Cl)c3)Oc3cc2cc(c3O[C@@H]2O[C@H](CO)[C@@H](O)[C@H](O)[C@H]2O[C@H]2C[C@](C)(NCc3ccc(-c4ccc(C)cc4)cc3)[C@@H](O)[C@H](C)O2)Oc2ccc(cc2Cl)[C@H]1O [Compound 97, 4-[4-methylphenyl]benzyl] | – | – | 2 (≈ 1.13 µM) | ≤ 0.06 | ≤ 0.06
CNC(CC(C)C)C(=O)NC1C(=O)NC(CC(N)=O)C(=O)NC2C(=O)NC3C(=O)NC(C(=O)NC(C(=O)O)c4cc(O)cc(O)c4-c4cc3ccc4O)C(OC3CC(C)(N)C(O)C(C)O3)c3ccc(c(Cl)c3)Oc3cc2cc(c3OC2OC(CO)C(O)C(O)C2OC2CC(C)(NCc3cccc(OC(=O)c4ccccc4)c3)C(O)C(C)O2)Oc2ccc(cc2Cl)C1O (stereo not shown) [Compound 162, 3-benzoyloxybenzyl] | – | – | 2 (≈ 1.11 µM) | ≤ 0.06 | ≤ 0.06
CNC(CC(C)C)C(=O)NC1C(=O)NC(CC(N)=O)C(=O)NC2C(=O)NC3C(=O)NC(C(=O)NC(C(=O)O)c4cc(O)cc(O)c4-c4cc3ccc4O)C(OC3CC(C)(N)C(O)C(C)O3)c3ccc(c(Cl)c3)Oc3cc2cc(c3OC2OC(CO)C(O)C(O)C2OC2CC(C)(NCc3cc(C)cs3)C(O)C(C)O2)Oc2ccc(cc2Cl)C1O (stereo not shown) [Compound 66, 3-methyl-5-thienylmethyl] | – | – | 8 (≈ 4.7 µM) | ≤ 0.06 | ≤ 0.06
CNC(CC(C)C)C(=O)NC1C(=O)NC(CC(N)=O)C(=O)NC2C(=O)NC3C(=O)NC(C(=O)NC(C(=O)O)c4cc(O)cc(O)c4-c4cc3ccc4O)C(OC3CC(C)(N)C(O)C(C)O3)c3ccc(c(Cl)c3)Oc3cc2cc(c3OC2OC(CO)C(O)C(O)C2OC2CC(C)(NCc3ccc(OCCCCCCc4ccccc4)cc3)C(O)C(C)O2)Oc2ccc(cc2Cl)C1O (stereo not shown) [Compound 219, 4-[6-phenylhexyloxy]benzyl] | – | – | 2 (≈ 1.08 µM) | 2 (≈ 1.08 µM) | 2 (≈ 1.08 µM)
CNC(CC(C)C)C(=O)NC1C(=O)NC(CC(N)=O)C(=O)NC2C(=O)NC3C(=O)NC(C(=O)NC(C(=O)O)c4cc(O)cc(O)c4-c4cc3ccc4O)C(OC3CC(C)(N)C(O)C(C)O3)c3ccc(c(Cl)c3)Oc3cc2cc(c3OC2OC(CO)C(O)C(O)C2OC2CC(C)(NCc3ccc(-c4ccc(OC)cc4)cc3)C(O)C(C)O2)Oc2ccc(cc2Cl)C1O (stereo not shown) [Compound 54, 4-[4-methoxyphenyl]benzyl] | – | – | 0.5 (≈ 0.28 µM) | 1 (≈ 0.559 µM) | ≤ 0.06
CNC(CC(C)C)C(=O)NC1C(=O)NC(CC(N)=O)C(=O)NC2C(=O)NC3C(=O)NC(C(=O)NC(C(=O)O)c4cc(O)cc(O)c4-c4cc3ccc4O)C(OC3CC(C)(N)C(O)C(C)O3)c3ccc(c(Cl)c3)Oc3cc2cc(c3OC2OC(CO)C(O)C(O)C2OC2CC(C)(NCc3ccc(OC)c(OCC4CCCCC4)c3)C(O)C(C)O2)Oc2ccc(cc2Cl)C1O (stereo not shown) [Compound 142, 3-[cyclohexylmethoxy]-4-methoxybenzyl] | – | – | 1 (≈ 0.548 µM) | 1 (≈ 0.548 µM) | ≤ 0.06
CNC(CC(C)C)C(=O)NC1C(=O)NC(CC(N)=O)C(=O)NC2C(=O)NC3C(=O)NC(C(=O)NC(C(=O)O)c4cc(O)cc(O)c4-c4cc3ccc4O)C(OC3CC(C)(N)C(O)C(C)O3)c3ccc(c(Cl)c3)Oc3cc2cc(c3OC2OC(CO)C(O)C(O)C2OC2CC(C)(NCCCCCCCCOc3ccc(-c4ccccc4)cc3)C(O)C(C)O2)Oc2ccc(cc2Cl)C1O (stereo not shown) [Compound 201, 8-[4-phenylphenoxy]octyl] | – | – | 8 (≈ 4.27 µM) | 4 (≈ 2.14 µM) | 1 (≈ 0.534 µM)
CNC(CC(C)C)C(=O)NC1C(=O)NC(CC(N)=O)C(=O)NC2C(=O)NC3C(=O)NC(C(=O)NC(C(=O)O)c4cc(O)cc(O)c4-c4cc3ccc4O)C(OC3CC(C)(N)C(O)C(C)O3)c3ccc(c(Cl)c3)Oc3cc2cc(c3OC2OC(CO)C(O)C(O)C2OC2CC(C)(NCc3ccc(-c4ccccc4)cc3F)C(O)C(C)O2)Oc2ccc(cc2Cl)C1O (stereo not shown) [Compound 206, 4-phenyl-2-fluorobenzyl] | – | – | 1 (≈ 0.563 µM) | ≤ 0.06 | 0.25 (≈ 0.141 µM)
CNC(CC(C)C)C(=O)NC1C(=O)NC(CC(N)=O)C(=O)NC2C(=O)NC3C(=O)NC(C(=O)NC(C(=O)O)c4cc(O)cc(O)c4-c4cc3ccc4O)C(OC3CC(C)(N)C(O)C(C)O3)c3ccc(c(Cl)c3)Oc3cc2cc(c3OC2OC(CO)C(O)C(O)C2OC2CC(C)(NCc3ccccc3O)C(O)C(C)O2)Oc2ccc(cc2Cl)C1O (stereo not shown) [Compound 169, 2-hydroxybenzyl] | – | – | 4 (≈ 2.35 µM) | ≤ 0.06 | ≤ 0.06
CNC(CC(C)C)C(=O)NC1C(=O)NC(CC(N)=O)C(=O)NC2C(=O)NC3C(=O)NC(C(=O)NC(C(=O)O)c4cc(O)cc(O)c4-c4cc3ccc4O)C(OC3CC(C)(N)C(O)C(C)O3)c3ccc(c(Cl)c3)Oc3cc2cc(c3OC2OC(CO)C(O)C(O)C2OC2CC(C)(NCCCCCCCCOc3ccc(OC)cc3)C(O)C(C)O2)Oc2ccc(cc2Cl)C1O (stereo not shown) [Compound 200, 8-[4-methoxyphenoxy]octyl] | – | – | 2 (≈ 1.09 µM) | 0.5 (≈ 0.274 µM) | ≤ 0.06
CNC(CC(C)C)C(=O)NC1C(=O)NC(CC(N)=O)C(=O)NC2C(=O)NC3C(=O)NC(C(=O)NC(C(=O)O)c4cc(O)cc(O)c4-c4cc3ccc4O)C(OC3CC(C)(N)C(O)C(C)O3)c3ccc(c(Cl)c3)Oc3cc2cc(c3OC2OC(CO)C(O)C(O)C2OC2CC(C)(NCc3cncc(-c4ccccc4)c3)C(O)C(C)O2)Oc2ccc(cc2Cl)C1O (stereo not shown) [Compound 151, 5-phenyl-3-pyridinylmethyl] | – | – | 4 (≈ 2.27 µM) | ≤ 0.06 | ≤ 0.06
CNC(CC(C)C)C(=O)NC1C(=O)NC(CC(N)=O)C(=O)NC2C(=O)NC3C(=O)NC(C(=O)NC(C(=O)O)c4cc(O)cc(O)c4-c4cc3ccc4O)C(OC3CC(C)(N)C(O)C(C)O3)c3ccc(c(Cl)c3)Oc3cc2cc(c3OC2OC(CO)C(O)C(O)C2OC2CC(C)(NCc3ccc(Oc4ccc(Cl)cc4)cc3)C(O)C(C)O2)Oc2ccc(cc2Cl)C1O (stereo not shown) [Compound 240, 4-[4-chlorophenoxy]benzyl] | – | – | 2 (≈ 1.11 µM) | 0.5 (≈ 0.276 µM) | ≤ 0.06
CNC(CC(C)C)C(=O)NC1C(=O)NC(CC(N)=O)C(=O)NC2C(=O)NC3C(=O)NC(C(=O)NC(C(=O)O)c4cc(O)cc(O)c4-c4cc3ccc4O)C(OC3CC(C)(N)C(O)C(C)O3)c3ccc(c(Cl)c3)Oc3cc2cc(c3OC2OC(CO)C(O)C(O)C2OC2CC(C)(NCC3CCC(C4CCCCC4)CC3)C(O)C(C)O2)Oc2ccc(cc2Cl)C1O (stereo not shown) [Compound 164, 4-[cyclohexyl]cyclohexylmethyl] | – | – | 2 (≈ 1.13 µM) | 1 (≈ 0.565 µM) | 1 (≈ 0.565 µM)
CNC(CC(C)C)C(=O)NC1C(=O)NC(CC(N)=O)C(=O)NC2C(=O)NC3C(=O)NC(C(=O)NC(C(=O)O)c4cc(O)cc(O)c4-c4cc3ccc4O)C(OC3CC(C)(N)C(O)C(C)O3)c3ccc(c(Cl)c3)Oc3cc2cc(c3OC2OC(CO)C(O)C(O)C2OC2CC(C)(NCc3ccc(-c4ccc(C)cc4)cc3C)C(O)C(C)O2)Oc2ccc(cc2Cl)C1O (stereo not shown) [Compound 222, 4-[4-methylphenyl]-2-methylbenzyl] | – | – | 1 (≈ 0.56 µM) | ≤ 0.06 | ≤ 0.06
